Experimental data reported in patent US20230002352A1, “SULFONAMIDE DERIVATIVES AS CTPS1 INHIBITORS” (Step Pharma S.A.S., priority 2019, published 2023).

target: T1, human CTPS1 (Homo sapiens, UniProt P17812); experiment: Human CTPS1 enzyme inhibition (ADP-Glo Max assay); format: biochemical; conditions: Table 23; ADP-Glo Max assay; read-out: CTPS1 (Human CTPS1 Enzyme Inhibition data grouped by potency range, IC50)
T1 construct: purchased Proteros biostructures GmbH
T1 sequence (P17812 1-591): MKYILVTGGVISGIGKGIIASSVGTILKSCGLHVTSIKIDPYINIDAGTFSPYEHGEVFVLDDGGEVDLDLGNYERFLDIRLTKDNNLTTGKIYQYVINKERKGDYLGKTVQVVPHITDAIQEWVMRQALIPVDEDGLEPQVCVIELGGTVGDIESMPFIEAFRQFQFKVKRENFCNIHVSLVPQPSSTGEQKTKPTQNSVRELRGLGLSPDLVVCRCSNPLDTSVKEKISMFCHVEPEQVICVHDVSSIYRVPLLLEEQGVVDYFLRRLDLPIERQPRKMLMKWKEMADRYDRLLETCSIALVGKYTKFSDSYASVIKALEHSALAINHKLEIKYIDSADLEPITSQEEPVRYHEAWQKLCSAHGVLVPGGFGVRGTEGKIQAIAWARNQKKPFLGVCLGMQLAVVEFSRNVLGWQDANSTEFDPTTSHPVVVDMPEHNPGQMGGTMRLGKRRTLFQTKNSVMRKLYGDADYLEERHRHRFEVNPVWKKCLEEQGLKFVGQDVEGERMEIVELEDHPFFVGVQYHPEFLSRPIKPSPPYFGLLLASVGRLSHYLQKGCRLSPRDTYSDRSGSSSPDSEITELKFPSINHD
Protocol: Biological Example 1—Human CTPS1 Enzyme Inhibition
The enzyme inhibitory activities of compounds invented against the target of interest were determined using the ADP-Glo™ Max assay (Promega, UK). Assays for human CTPS1 were performed in 1× assay buffer containing 50 mM Tris, 10 mM MgCl2, 0.01% Tween-20, pH to 8.0 accordingly. Finally, immediately before use, L-cysteine was added to the 1× assay buffer to a final concentration of 2 mM. All reagents are from Sigma-Aldrich unless specified otherwise. Human full length active C-terminal FLAG-Hiss-tag CTPS1 (UniProtKB-P17812, CTPS[1-591]-[…]) was obtained from Proteros biostructures GmbH.
3× human CTPS1 protein was prepared in 1× assay buffer to the final working protein concentration required for the reaction. A 2 uL volume per well of 3× human CTPS1 protein was mixed with 2 uL per well of 3× test compound (compound prepared in 1× assay buffer to an appropriate final 3× compound concentration respective to the concentration response curve designed for the compounds under test) for 10 minutes at 25° C. The enzymatic reaction was then initiated by addition of a 2 uL per well volume of a pre-mixed substrate mix (UltraPure ATP from ADP-Glo™ Max kit (0.31 mM), GTP (0.034 mM), UTP (0.48 mM) and L-glutamine (0.186 mM)) and the mixture was incubated for an appropriate amount of time within the determined linear phase of the reaction at 25° C. under sealed plate conditions with constant agitation at 500 revolutions per minute (rpm). ADP-Glo™ Max reagent was added for 60 minutes (6 μL per well) and subsequently ADP-Glo™ Max development reagent was added for 60 minutes (12 uL per well) prior to signal detection in a microplate reader (EnVision® Multilabel Reader, Perkin Elmer). Following each reagent addition over the course of the assay, assay plates were pulse centrifuged for 30 seconds at 500 rpm.
In all cases, the enzyme converts ATP to ADP and the ADP-Glo™ Max reagent subsequently depletes any remaining endogenous ATP in the reaction system. The ADP-Glo™ Max detection reagent converts the ADP that has been enzymatically produced back into ATP and using ATP as a substrate together with luciferin for the enzyme luciferase, light is generated which produces a detectable luminescence. […] The percentage inhibition produced by each concentration of compound was calculated using the equation shown below: […]
Percentage inhibition was then plotted against compound concentration, and the 50% inhibitory concentration (IC50) was determined from the resultant concentration-response curve.

Q: Which IC50 does the source give for `COc1cncc(-c2ccc(NC(=O)Cc3cccc(NS(=O)(=O)C4CC4)n3)cc2)n1` [Example P173] here?
A: ≤ 100 nM

Q: Which IC50 does the source give for `CCOc1cncc(-c2cc(C)c(NC(=O)C(C)(C)c3ccnc(NS(=O)(=O)C4CC4)n3)cc2C)n1` [Example P46] here?
A: 100 to 1000 nM

Q: With `CC(C)(C(=O)Nc1ccc(-c2cccc(C#N)c2)cc1)c1ccnc(NS(=O)(=O)C2CC2)n1` [Example P62] as the compound, how does the IC50 read?
A: 1000 to 10000 nM

Q: For `CC(C)(C(=O)Nc1ccc(-c2cncc(C#N)c2)cc1)c1ccnc(NS(=O)(=O)C2CC2)n1` [Example P52], which IC50 is on record?
A: 100 to 1000 nM

Q: How did the IC50 turn out when `CC(C)(C(=O)Nc1ccc(-c2cccnc2)cc1)c1cccc(NS(=O)(=O)C2CC2)n1` [Example P179] was run?
A: 1000 to 10000 nM

Q: For `CCOc1cncc(-c2ccc(NC(=O)C(C)(C)c3ccnc(NS(=O)(=O)C4CC4)n3)cc2)c1` [Example P57], which IC50 is on record?
A: 100 to 1000 nM

Q: How did the IC50 turn out when `CCOc1cncc(-c2ccc(NC(=O)C(C)(C)c3ccnc(NS(=O)(=O)CC)n3)c(F)c2)n1` [Example P72] was run?
A: 100 to 1000 nM

Q: How did the IC50 turn out when `CC(C)(C(=O)Nc1ccc(-c2cncc(Cl)c2)cc1)c1ccnc(NS(=O)(=O)C2CC2)n1` [Example P51] was run?
A: 100 to 1000 nM

Q: `CC(C)(C(=O)Nc1ccc(-c2cccc(C(F)(F)F)c2)cc1)c1ccnc(NS(=O)(=O)C2CC2)n1` [Example P60] was tested. Which IC50 did it give?
A: 1000 to 10000 nM

Q: How did the IC50 turn out when `CC(C)(C(=O)Nc1ccc(-c2cccnc2)cn1)c1cccc(NS(=O)(=O)C2CC2)n1` [Example P175] was run?
A: 1000 to 10000 nM

Q: How did the IC50 turn out when `CCOc1cncc(-c2ccc(NC(=O)C(C)(C)c3ccnc(NS(=O)(=O)C4CC4)n3)c(Cl)c2)n1` [Example P33] was run?
A: ≤ 100 nM

Q: Which IC50 does the source give for `CC(C)(C(=O)Nc1ccc(-c2cncc(OC3CC3)n2)cn1)c1ccnc(NS(=O)(=O)C2CC2)n1` [Example P32] here?
A: ≤ 100 nM

Q: `CC(C)Oc1cncc(-c2ccc(NC(=O)C(C)(C)c3ccnc(NS(=O)(=O)C4CC4)n3)cc2)c1` [Example P58] was tested. Which IC50 did it give?
A: 100 to 1000 nM

Q: Which IC50 does the source give for `O=C(Cc1ccnc(NS(=O)(=O)C2CC2)n1)Nc1ccc(-c2ccccc2)cc1` [Example P17] here?
A: 1000 to 10000 nM

Q: How did the IC50 turn out when `CCOc1cncc(-c2ccc(NC(=O)C(C)(C)c3ccnc(NS(=O)(=O)C4CCC4)n3)nc2)n1` [Example P22] was run?
A: 100 to 1000 nM

Q: `CC(C)Oc1cncc(-c2ccc(NC(=O)C(C)(C)c3ccnc(NS(=O)(=O)C4CC4)n3)c(F)c2)c1` [Example P35] was tested. Which IC50 did it give?
A: 100 to 1000 nM

Q: With `CC(C)(C(=O)Nc1ccc(-c2cncc(C(F)(F)F)n2)cc1F)c1ccnc(NS(=O)(=O)C2CC2)n1` [Example P37] as the compound, how does the IC50 read?
A: ≤ 100 nM

Q: With `CC(C)(C(=O)Nc1ccc(-c2cncc(C(F)(F)F)n2)cc1)c1ccnc(NS(=O)(=O)C2CC2)n1` [Example P64] as the compound, how does the IC50 read?
A: ≤ 100 nM

Q: Which IC50 does the source give for `CC(C)Oc1cncc(-c2ccc(NC(=O)C(C)(C)c3ccnc(NS(C)(=O)=O)n3)c(F)c2)c1` [Example P77] here?
A: 1000 to 10000 nM

Q: For `CCOc1cncc(-c2ccc(NC(=O)C(C)(C)c3ccnc(NS(=O)(=O)C4CC4)n3)cn2)n1` [Example P126], which IC50 is on record?
A: ≤ 100 nM

Q: With `CCOc1cncc(-c2ccc(NC(=O)C3(c4cccc(NS(=O)(=O)C5CC5)n4)CCOCC3)nc2)n1` [Example P186] as the compound, how does the IC50 read?
A: ≤ 100 nM

Q: For `CCOc1cncc(-c2ccc(NC(=O)C(C)(C)c3ccnc(NS(=O)(=O)C4(C)CC4)n3)cc2)n1` [Example P69], which IC50 is on record?
A: 100 to 1000 nM

Q: For `CCOc1cncc(-c2ccc(NC(=O)C(C)(C)c3cccc(NS(=O)(=O)C4CC4)n3)cc2)n1` [Example P183], which IC50 is on record?
A: 100 to 1000 nM

Q: For `CC(C)c1cncc(-c2ccc(NC(=O)C(C)(C)c3ccnc(NS(=O)(=O)C4CC4)n3)nc2)n1` [Example P116, 2-(2-(Cyclopropanesulfonamido)pyrimidin-4-yl)-N-(5-(6-isopropylpyrazin-2-yl)pyridin-2-yl)-2-methylpropanamide], which IC50 is on record?
A: 100 to 1000 nM

Q: Which IC50 does the source give for `CC(C)(C(=O)Nc1ccc(-c2cncc(F)c2)cc1)c1ccnc(NS(=O)(=O)C2CC2)n1` [Example P53] here?
A: 100 to 1000 nM

Q: How did the IC50 turn out when `N#Cc1cncc(-c2ccc(NC(=O)Cc3cccc(NS(=O)(=O)C4CC4)n3)cc2)c1` [Example P168] was run?
A: 100 to 1000 nM

Q: For `COc1cncc(-c2ccc(NC(=O)Cc3ccnc(NS(=O)(=O)C4CC4)n3)cc2)n1` [Example P19], which IC50 is on record?
A: ≤ 100 nM

Q: How did the IC50 turn out when `CCOc1cncc(-c2ccc(NC(=O)C(C)(C)c3cc(C(F)(F)F)nc(NS(=O)(=O)C4CC4)n3)nc2)n1` [Example P124] was run?
A: 100 to 1000 nM

Q: `CC(C)(C(=O)Nc1ccc(-c2cnccn2)cc1F)c1cccc(NS(=O)(=O)C2CC2)n1` [Example P180] was tested. Which IC50 did it give?
A: 1000 to 10000 nM

Q: Which IC50 does the source give for `COc1cncc(-c2ccc(NC(=O)C(C)(C)c3cccc(NS(=O)(=O)C4CC4)n3)cc2)n1` [Example P184] here?
A: 100 to 1000 nM

Q: `CCOc1cncc(-c2ccc(NC(=O)C(C)(C)c3ccnc(NS(C)(=O)=O)n3)cc2)n1` [Example P81] was tested. Which IC50 did it give?
A: ≤ 100 nM

Q: How did the IC50 turn out when `CCOc1cncc(-c2ccc(NC(=O)C(C)(C)c3cc(C(F)(F)F)nc(NS(=O)(=O)C4CC4)n3)cc2)n1` [Example P135] was run?
A: 100 to 1000 nM

Q: `CCC(C(=O)Nc1ccc(-c2cncc(OCC(F)(F)F)n2)cn1)c1ccnc(NS(=O)(=O)C2CC2)n1` (centres unmarked) [Example P157] was tested. Which IC50 did it give?
A: ≤ 100 nM

Q: `CCOc1cncc(-c2cc(F)c(NC(=O)C(C)(C)c3ccnc(NS(=O)(=O)C4CC4)n3)cc2C)n1` [Example P40] was tested. Which IC50 did it give?
A: 100 to 1000 nM

Q: With `CCOc1cncc(-c2ccc(NC(=O)C(C)(C)c3ccnc(NS(=O)(=O)C4CC4)n3)c(C)c2C)n1` [Example P44] as the compound, how does the IC50 read?
A: 100 to 1000 nM

Q: For `CCOc1cncc(-c2ccc(NC(=O)C(CC)(CC)c3ccnc(NS(=O)(=O)C4CC4)n3)cc2)n1` [Example P10], which IC50 is on record?
A: ≤ 100 nM

Q: With `CCOc1cncc(-c2ccc(NC(=O)C(C)(C)c3ccnc(NS(=O)(=O)C4CC4)n3)c(OC(F)(F)F)c2)n1` [Example P47] as the compound, how does the IC50 read?
A: ≤ 100 nM

Q: `O=C(Cc1cccc(NS(=O)(=O)C2CC2)n1)Nc1ccc(-c2cccnc2)cc1` [Example P171] was tested. Which IC50 did it give?
A: 1000 to 10000 nM

Q: How did the IC50 turn out when `CCOc1cncc(-c2ccc(NC(=O)C3(c4ccnc(NS(=O)(=O)C5CC5)n4)CCNCC3)nc2)n1` [Example P140] was run?
A: 100 to 1000 nM

Q: `CC(C)(C(=O)Nc1ccc(-c2cnccn2)cc1F)c1ccnc(NS(=O)(=O)C2CC2)n1` [Example P42] was tested. Which IC50 did it give?
A: 1000 to 10000 nM

Q: `O=C(Cc1cncc(NS(=O)(=O)C2CC2)n1)Nc1ccc(-c2cccnc2)cc1` [Example P192] was tested. Which IC50 did it give?
A: 1000 to 10000 nM

Q: With `O=C(Cc1ccnc(NS(=O)(=O)C2CC2)n1)Nc1ccc(-c2cncc(C(F)(F)F)n2)cc1F` [Example P11] as the compound, how does the IC50 read?
A: ≤ 100 nM

Q: How did the IC50 turn out when `CCOc1cncc(-c2ccc(C(=O)NC3(c4ccnc(NS(=O)(=O)C5CC5)n4)CC3)c(F)c2)n1` [Example P209] was run?
A: 100 to 1000 nM

Q: With `C=C(C)c1cncc(-c2ccc(NC(=O)C(C)(C)c3ccnc(NS(=O)(=O)C4CC4)n3)nc2)n1` [Example P122, 2-(2-(cyclopropanesulfonamido)pyrimidin-4-yl)-2-methyl-N-(5-(6-(prop-1-en-2-yl)pyrazin-2-yl)pyridin-2-yl)propanamide] as the compound, how does the IC50 read?
A: 100 to 1000 nM

Q: How did the IC50 turn out when `CC(C)Oc1cncc(-c2ccc(NC(=O)C(C)(C)c3ccnc(NS(=O)(=O)C4CCC4)n3)c(F)c2)n1` [Example P23] was run?
A: 100 to 1000 nM

Q: How did the IC50 turn out when `CCOc1cncc(-c2ccc(NC(=O)C(F)(c3ccnc(NS(=O)(=O)C4CC4)n3)C(C)C)nc2)n1` (centres unmarked) [Example P152] was run?
A: ≤ 100 nM

Q: Which IC50 does the source give for `Cc1cc(-c2cncc(C(F)(F)F)n2)ccc1NC(=O)C(C)(C)c1ccnc(NS(C)(=O)=O)n1` [Example P79] here?
A: 100 to 1000 nM

Q: Which IC50 does the source give for `CC(C)(C(=O)Nc1ccc(-c2cncc(C(F)(F)F)n2)cn1)c1ccnc(NS(=O)(=O)C2CC2)n1` [Example P30] here?
A: ≤ 100 nM

same assay, conditions: Table 24; ADP-Glo Max assay; read-out: CTPS1 (Human CTPS1 Enzyme Inhibition data grouped by potency range, IC50)

Q: How did the IC50 turn out when `CCOc1cncc(-c2ccc(CNC3(c4ccnc(NS(=O)(=O)C5CC5)n4)CC3)nc2)n1` [Example P254] was run?
A: 100 to 1000 nM

Q: How did the IC50 turn out when `CCOc1cncc(-c2ccc(CNC(CC)c3ccnc(NS(=O)(=O)C4CC4)n3)c(F)c2)n1` (centres unmarked) [Example P235, N-(4-(1-((4-(6-Ethoxypyrazin-2-yl)-2-fluorobenzyl)amino)propyl)pyrimidin-2-yl)cyclopropanesulfonamide] was run?
A: 100 to 1000 nM
